This is an account of results in patent US7041461B2 (H. Lundbeck A/S, priority 1998, dated 2006).

Entries after “also recorded” stand apart in the source; their conditions may differ. Like-named read-outs stand apart in the source and are kept apart here. Non-standard residues stand in square brackets, D forms with d. Residues, ends and D or L forms follow the SMILES beside them. No end group written: not given here. NMeF = CN[C@@H](Cc1ccccc1)C(=O)O

Test [1] deals with T1, SNORF2 (NPFF1) (Rattus norvegicus, UniProt Q9EP86).
T1 construct: from linearized plasmids or PCR products containing the complete coding region of the genes; expressed in transfected cells; host or cells: Xenopus laevis oocytes injected with synthetic RNA
T1 sequence (Q9EP86 whole entry): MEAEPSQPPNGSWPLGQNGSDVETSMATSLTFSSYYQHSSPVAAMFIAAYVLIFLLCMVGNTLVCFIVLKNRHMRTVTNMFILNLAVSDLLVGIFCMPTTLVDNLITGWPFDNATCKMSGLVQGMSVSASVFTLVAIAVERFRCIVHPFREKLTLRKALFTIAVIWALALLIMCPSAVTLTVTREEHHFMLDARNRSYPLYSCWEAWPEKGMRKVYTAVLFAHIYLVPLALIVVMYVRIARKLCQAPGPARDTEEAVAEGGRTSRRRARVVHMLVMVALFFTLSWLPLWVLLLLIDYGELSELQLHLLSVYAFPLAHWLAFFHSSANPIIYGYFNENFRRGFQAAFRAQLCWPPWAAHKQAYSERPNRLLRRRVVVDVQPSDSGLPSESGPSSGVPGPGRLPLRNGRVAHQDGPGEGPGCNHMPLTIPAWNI
Briefly: Voltage-clamp electrophysiology in Xenopus oocytes expressing SNORF2 (NPFF1) and chimeric Gαq/z. The settings on record: for activation of oocytes injected with SNORF2 synthetic RNA: unrelated neuropeptides and neurotransmitters, concentration not given; for inward current response: 1 μM, oocytes with SNORF2 and Gαq/z, holding potential −80 mV. Format: cell-based. On the procedure: (§1) Oocytes were harvested from Xenopus laevis and injected with mRNA transcripts as previously described (Quick and Lester, 1994; Smith et al., 1997). […] Three to eight hours prior to recording, oocytes were injected with 500 pg Gαq/z mRNA in order to observe coupling to Ca^++ activated Cl^− currents. Dual electrode voltage clamp (Axon Instruments Inc.) was performed using 3 M KCl-filled glass microelectrodes having resistances of 1–2 Mohm. Unless otherwise specified, oocytes were voltage clamped at a holding potential of −80 mV. During recordings, oocytes were bathed in continuously flowing (1–3 ml/min) medium containing 96 mM NaCl, 2 mM KCl, 1.8 mM CaCl2, 1 mM MgCl2, and 5 mM HEPES, pH 7.5 (ND96). Drugs were applied either by local perfusion from a […] glass capillary tube fixed at a distance of 0.5 mm from the oocyte, or by switching from a series of gravity fed perfusion lines.
Heterologous expression of GPCRs in Xenopus oocytes has been widely used to determine the identity of signaling pathways activated by agonist stimulation (Gundersen et al., 1983; Takahashi et al., 1987). Activation of the phospholipase C (PLC) pathway is assayed by applying test compound in ND96 solution to oocytes previously injected with mRNA for the mammalian receptor and observing inward currents at a holding potential of −80 mV. The appearance of currents that reverse at −25 mV and display other properties of the Ca^++-activated Cl^− (chloride) channel is indicative of mammalian receptor-activation of PLC and release of IP3 and intracellular Ca^++.
Control oocytes receiving only G-protein synthetic RNA were unresponsive to these peptides. […] Similarly, SNORF2-like was renamed NPFF-like.

Test [2] deals with T2, cloned rat NPFF1 receptor (Rattus norvegicus, UniProt Q9EP86).
T2 construct: expressed in transfected cells; host or cells: COS-7 cells, transient; membranes
T2 sequence (Q9EP86 whole entry): as above
Briefly: Radioligand binding to cloned rat NPFF1 receptor, membranes of transiently transfected COS-7 cells. On the procedure:
Transfected cells from culture flasks are scraped into 5 ml of 20 mM Tris-HCl, 5 mM EDTA, pH 7.5, and lysed by sonication. The cell lysates are centrifuged at 1000 rpm for 5 min. at 4° C., and the supernatant is centrifuged at 30,000× g for 20 min. at 4° C. […] Optimal membrane suspension dilutions, defined as the protein concentration required to bind less than 10% of the added radioligand, […], unlabeled compounds, and binding buffer to a final volume of 250 μl. In equilibrium saturation binding assays membrane preparations are incubated in the presence of increasing concentrations of [^3H]-labeled compound.
(§2) Competition assay: 50 pM radioligand, 10–12 points. Binding reaction mixtures are incubated for 2 hr at 25° C., and the reaction stopped by filtration through a double layer of GF filters treated with 0.1% polyethyleneimine, using a cell harvester. Wash buffer: 50 mM Tris-HCl, 0.1% BSA. Radioactivity may be measured by scintillation counting and data are analyzed by a computerized non-linear regression program. Non-specific binding is defined as the amount of radioactivity remaining after incubation of membrane protein in the presence of 1 μM final concentration […]. Protein concentration may be measured by the Bradford method using Bio-Rad Reagent, with bovine serum albumin as a standard.
Cos-7 cells transiently expressing the gene encoding the novel rat NPFF1 receptor were used for pharmacological evaluation. […]

For test [3], the target named is rat spinal cord membrane receptor. Briefly: Radioligand binding to rat spinal cord membranes. The settings on record: * marks difference from NPFF1. The protocol: Transfected cells from culture flasks are scraped into 5 ml of 20 mM Tris-HCl, 5 mM EDTA, pH 7.5, and lysed by sonication. The cell lysates are centrifuged at 1000 rpm for 5 min. at 4° C., and the supernatant is centrifuged at 30,000× g for 20 min. at 4° C. […] Optimal membrane suspension dilutions, defined as the protein concentration required to bind less than 10% of the added radioligand, are added to 96-well polpropylene microtiter plates containing ^3H-labeled compound, unlabeled compounds, and binding buffer to a final volume of 250 μl. In equilibrium saturation binding assays membrane preparations are incubated in the presence of increasing concentrations of [^3H]-labeled compound.
as §2
The binding profile of rat NPFF1 was compared to that of rat spinal cord membranes. […] (See * Table 2).

Test [4] deals with NPFF receptors. The settings on record: at a concentration of 10 μM; spinal cord membranes; cited from earlier work.
The target of test [5] is T3, NPFF2 (hNPFF2) (Homo sapiens, UniProt Q9Y5X5).
T3 construct: BO89, was determined to be a full length clone with no point mutations; expressed in transfected cells; host or cells: Xenopus laevis oocytes injected with synthetic mRNA
T3 sequence (Q9Y5X5 103-522): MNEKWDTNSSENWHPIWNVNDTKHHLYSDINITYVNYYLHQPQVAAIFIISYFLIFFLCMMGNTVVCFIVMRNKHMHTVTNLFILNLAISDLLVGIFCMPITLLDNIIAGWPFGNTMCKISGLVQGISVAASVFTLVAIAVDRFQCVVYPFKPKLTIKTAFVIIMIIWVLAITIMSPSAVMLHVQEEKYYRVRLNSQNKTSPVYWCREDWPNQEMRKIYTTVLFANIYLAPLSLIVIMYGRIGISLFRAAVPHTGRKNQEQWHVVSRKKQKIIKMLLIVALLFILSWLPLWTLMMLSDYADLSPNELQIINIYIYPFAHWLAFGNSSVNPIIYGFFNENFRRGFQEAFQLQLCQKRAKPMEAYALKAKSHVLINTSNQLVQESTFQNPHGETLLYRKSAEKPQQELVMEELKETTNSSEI
Briefly: Voltage-clamp electrophysiology in Xenopus oocytes expressing NPFF2 (NPFF-like) and chimeric Gαq/z. Format: cell-based. The settings on record: 1 μM; oocytes with NPFF2 (NPFF-like) mRNA and Gαq/z; −80 mV. On the procedure:
Electrophysiological responses in voltage-clamped oocytes expressing NPFF2 mRNA. […] Oocytes were clamped at a holding potential of −80 mV.
For expression of NPFF2, mRNA transcripts were generated as described for NPFF1, using PCR products from ligation reactions or linearized DNA from B089 as DNA templates. Oocytes were injected with 5–50 ng NPFF2 mRNA and incubated as previously described.
as §1

Where [6] appears, read: competition of [125I]D-Tyr-NPFF binding, transiently transfected COS-7 membranes, read-out: pKi for cloned rat NPFF1 receptor binding in COS-7 cells, MEAN (converted).
Setting [7] is: competition of [125I]D-Tyr-NPFF binding, transiently transfected COS-7 membranes.

Turning to `NCCc1c[nH]c2ccc(O)cc12` [5-HT], in test [1], the “activation of oocytes injected with SNORF2 synthetic RNA” value (“activation of oocytes injected” for short) was “failed to activate”.

For `CC(C)C[C@@H](NC(=O)[C@H](N)Cc1ccc(O)cc1)C(=O)N[C@H](Cc1ccccc1)C(=O)N[C@@H](CCC(N)=O)C(=O)N1CCC[C@H]1C(=O)N[C@@H](CCC(N)=O)C(=O)N[C@@H](CCCNC(=N)N)C(=O)N[C@@H](Cc1ccccc1)C(N)=O` [(3D)Y8Fa] (H-[dY][dL][dF]QPQRF-NH2; N-terminus assumed), the Ki in test [2] (setting [6]) was 2.38 nM. As to `CC(C)C[C@H](NC(=O)[C@H](N)Cc1ccc(O)cc1)C(=O)N(C)[C@@H](Cc1ccccc1)C(=O)N[C@@H](CCC(N)=O)C(=O)N1CCC[C@H]1C(=O)N[C@@H](CCC(N)=O)C(=O)N[C@@H](CCCN=C(N)N)C(=O)N[C@@H](Cc1ccccc1)C(N)=O` [(D-Tyr^1-(NMe)Phe^3)NPFF] (H-[dY]L[NMeF]QPQRF-NH2), in test [2] (setting [6]), the Ki was 2.82 nM. Consider `CSCC[C@H](NC(=O)[C@H](Cc1ccc(OS(=O)(=O)O)cc1)NC(=O)[C@@H](N)CC(=O)O)C(=O)NCC(=O)N[C@@H](Cc1c[nH]c2ccccc12)C(=O)N[C@@H](CCSC)C(=O)N[C@@H](CC(=O)O)C(=O)N[C@@H](Cc1ccccc1)C(N)=O` [CCK8], for which the “pKi for rat spinal cord membrane receptor binding, MEAN” value in test [3] was 5.000. Regarding `N=C(N)NCCC[C@@H](N)C(=O)O` [D-arginine], the “pKi for cloned rat NPFF1 receptor binding in COS-7 cells, MEAN” value (from here on “pKi … in COS-7 cells, MEAN”) in test [2] (setting [7]) is 5.000. Moreover, the “pKi for rat spinal cord membrane receptor binding, MEAN” value in test [3] is 5.000. As for `N=C(N)NCCC[C@H](N)C(=O)O` [L-arginine], the “pKi … in COS-7 cells, MEAN” value in test [2] (setting [7]) is given as 5.000. Moreover, the “pKi for rat spinal cord membrane receptor binding, MEAN” value in test [3] is on record as 5.000. In the case of `CSCC[C@H](NC(=O)[C@@H]1CCCN1)C(=O)N[C@@H](CCCNC(=N)N)C(=O)N[C@@H](Cc1ccccc1)C(N)=O` [PMRFa] (H-PMRF-NH2; N-terminus assumed), in test [2] (setting [6]), the Ki was 2.82 nM. Take `CNCCCN1c2ccccc2CCc2ccccc21` [desipramine]: the “pKi … in COS-7 cells, MEAN” value in test [2] (setting [7]) is on record as 5.000. Also, the “pKi for rat spinal cord membrane receptor binding, MEAN” value in test [3] came out at 5.000. Take `NCCc1ccc(O)c(O)c1` [dopamine]: the “pKi … in COS-7 cells, MEAN” value in test [2] (setting [7]) was 5.000. In addition, the “pKi for rat spinal cord membrane receptor binding, MEAN” value in test [3] worked out at 5.000.

In the case of `CCNC(C)Cc1cccc(C(F)(F)F)c1` (stereo not shown) [fenfluramine], the “pKi … in COS-7 cells, MEAN” value in test [2] (setting [7]) was 5.000. The “pKi for rat spinal cord membrane receptor binding, MEAN” value in test [3] was 5.000. In the case of `COc1ccc2c(c1)[nH]c1c(C)nccc12` [harmine], the “pKi … in COS-7 cells, MEAN” value in test [2] (setting [7]) came to 5.000. The “pKi for rat spinal cord membrane receptor binding, MEAN” value in test [3] was determined as 5.000. Turning to `C[C@@H]1CN([C@H]2CC[C@](C#N)(c3ccc(F)cc3)CC2)CC[C@]1(C(=O)O)c1ccccc1` [levocabastine], the “pKi … in COS-7 cells, MEAN” value in test [2] (setting [7]) is recorded as 5.000. Also, the “pKi for rat spinal cord membrane receptor binding, MEAN” value in test [3] amounted to 5.000. For the molecule `CN1CC[C@]23c4c5ccc(O)c4O[C@H]2[C@@H](O)C=C[C@H]3[C@H]1C5` [morphine], in test [4], the “inhibition of [125I](1DMe)Y8Fa binding” value is recorded as “No inhibition”. For `CC(C)C[C@H](NC(=O)[C@H](CCCCN)NC(=O)[C@H](CCCN=C(N)N)NC(=O)[C@H](C)NC(=O)[C@H](CO)NC(=O)[C@H](CCCCN)NC(=O)[C@H](CCCN=C(N)N)NC(=O)[C@H](C)NC(=O)CNC(=O)[C@@H](NC(=O)[C@H](Cc1ccccc1)NC(=O)CNC(=O)CNC(=O)[C@@H](N)Cc1ccccc1)[C@@H](C)O)C(=O)N[C@@H](C)C(=O)N[C@@H](CC(N)=O)C(=O)N[C@@H](CCC(N)=O)C(=O)O` [nociceptin], the “pKi … in COS-7 cells, MEAN” value in test [2] (setting [7]) was 5.000. In addition, the “pKi for rat spinal cord membrane receptor binding, MEAN” value in test [3] was 5.000. The “activation of oocytes injected” value in test [1] is listed as “failed to activate”. Take `Cc1nc2sccn2c(=O)c1CCN1CCC(=C(c2ccc(F)cc2)c2ccc(F)cc2)CC1` [ritanserine]: the “pKi … in COS-7 cells, MEAN” value in test [2] (setting [7]) stood at 5.000. Further, the “pKi for rat spinal cord membrane receptor binding, MEAN” value in test [3] came to 5.000.

In the case of AGEGLSSPYWSLAAPQRF-NH2 [[Y^9]A18Fa], the Ki in test [2] (setting [6]) is 27.7 nM. For the same molecule, the inward current response result in test [1] is given as “displayed activity”. Turning to NPY: unrelated neuropeptide, the inward current response result in test [5] is “failed to activate responses; also recorded: no response is observed”. Moreover, the “inhibition of [125I](1DMe)Y8Fa binding” value in test [4] is recorded as “No inhibition”. For the molecule PDVDHVFLRF-NH2 [SchistFLRF], in test [2], the Ki is 1100 nM.

As for PYY: unrelated neuropeptide, in test [1], the “activation of oocytes injected” value was “failed to activate”. As for TEPGLEEVGEIEQKQLQ [nocistatin], the “pKi for rat spinal cord membrane receptor binding, MEAN” value in test [3] worked out at 5.000.

With “YLFQPQRF-NH2 [Y8Fa] [listing 1 of 2 here]”, the Ki in test [2] (setting [6]) was 4.15 nM. In the case of “YLFQPQRF-NH2 [Y8Fa] [listing 2 of 2 here]”, the inward current response result in test [1] is recorded as “displayed activity”. Consider a-MSH, for which the “pKi for rat spinal cord membrane receptor binding, MEAN” value in test [3] was determined as 5.000. Same read-out and setting: then ibogaine, with 5.000. Turning to “melanin concentrating hormone: unrelated neuropeptide”, the “activation of oocytes injected” value in test [1] was “failed to activate”. For the molecule neurokinin A: unrelated neuropeptide, the inward current response entry in test [5] is listed as “failed to activate responses; also recorded: no response is observed”. Same read-out and setting: under “orexin A: unrelated neuropeptide (QPLPDCCRQKTCSCRLYELLHGAGNHAAGILTL; ends and bridges not checked; cysteine pairing not given here; UniProt O43612 34-66, looked up)” stands “failed to activate responses; also recorded: no response is observed”. For orexin B: unrelated neuropeptide, the “activation of oocytes injected” value in test [1] is reported as “failed to activate”.

Regarding substance P, the “pKi for rat spinal cord membrane receptor binding, MEAN” value in test [3] worked out at 5.000. Further, in test [4], the “inhibition of [125I](1DMe)Y8Fa binding” value is “No inhibition”.

B1: CCK: unrelated neuropeptide (peptide, UniProt P06307 21-115, looked up)
Cholecystokinin: QPVPPADPAGSGLQRAEEAPRRQLRVSQRTDGESRAHLGALLARYIQQARKAPSGRMSIVKNLQNLDPSHRISDRDYMGWMDFGRRSAEEYEYPS
modifications: Cholecystokinin
notes: unrelated neuropeptide
As for B1, the “activation of oocytes injected” value in test [1] is given as “failed to activate”.
